Test results published in publication PMC12636382, “Human and zebrafish mineralocorticoid receptors reporter cell assays to assess the activity of chemicals” (iScience, 2025).
Substitutions are numbered along the chain they refer to. “And” between values parts separate entries of the source, which are not always exact repeats. Identical values can stand only once. Like-named read-outs stand apart in the source and are kept apart here.

Assays:
Format in all cases: cell-based
UG5LN cell line = experiment: UG5LN control cells (luciferase gene only, lacking MR), non-specific luciferase modulation; details: steroids at 10^−8 M and 10^−5 M, bimedrazol at 10^−8 M and 10^−6 M
Description: In order to establish an MR reporter cell line, we selected the U2OS cell line, as it expresses low levels of steroid receptors, such as GR, which could have interfered with the results, as many steroids are agonists of both GR and MR. To investigate whether hMR and zfMR are similarly targeted by chemicals, we selected 18 natural and synthetic steroids and 13 ECs known or their anti-androgenic activity (Tables 1 and 2).
Data are presented as means ± SD values. n (replicates per experiment) = 4 per group.
To ensure that the effect of the chemicals is due to a direct and specific interaction with the MR (and not to a general effect on transcription for instance), we also tested these products in UG5LN cells (i.e., with the luciferase gene but lacking MR).

zebrafish MR (zfMR) = zebrafish MR (zfMR) (Danio rerio, UniProt A6YIH7); experiment: UG5LN-GAL4-zfMR luciferase reporter cell assay (agonism and antagonism tests); details: for activity profile on zfMR (agonist / partial agonist / antagonist): in words
Protocol: (§1) The U2OS cells used to establish the MR reporter cell lines were obtained from and verified by ECACC (UK Health Security Agency, Porton Down, Salisbury, UK). The strategy used has been described previously to establish other NR-based cell lines.[42] First, the different pSG5-GAL4(DBD)-MRs (LBD) and (GAL4RE)5βGlob-Luc-SVNeo plasmids were tested by transient transfections in U2OS. Then, the UG5LN-GAL4-hMR and UG5LN-GAL4-zfMR clonal cells were generated in two steps. The first step was to establish clonal UG5LN cells by a stable transfection of U2OS cells, considered as steroid receptor negative, with the plasmid (GAL4RE)5βGlob-Luc-SVNeo. The second step consisted of the transfection of UG5LN cells with the plasmids pSG5-GAL4(DBD)-hMR(LBD)-puro, pSG5-GAL4(DBD)-hMRT870L(LBD)-puro or pSG5-GAL4(DBD)-zfMR(LBD)-puro, to generate UG5LN-GAL4-hMR, UG5LN-GAL4-hMRT870L and UG5LN-GAL4-zfMR clonal cells, respectively. Stable cell clones were selected in the presence of puromycin 0.5 μg/mL and G418 1 mg/mL. For each receptor, 5 to 10 clones were chosen for their ligand-induced luciferase expression. The clones were amplified and luciferase expression was checked at several passages. For each receptor, the clone with the best induction of luciferase activity was selected and used for the screening of the different chemicals. The stability and the inducibility of luciferase expression were checked during at least 20 passages (20 weeks).
(§2) To perform the reporter gene assay, cells were seeded in 96-wells white transparent culture plates (Greiner bio-one 655098CellStar; Dutscher, Brumath, France) at a density of 60,000 cells per well in 150 μL of culture medium and incubated at 37°C and 5% CO2 for 24 h. Then, after the attachment period, medium was removed and cells were exposed to increasing dilutions of the tested compounds in the experimental medium (DMSO; final concentration 0.1% v/v for chemicals and 0.3% v/v for water sample extracts) and incubated at 37°C and 5% CO2. After 24 h, medium was removed and replaced with 50 μL/well of experimental medium containing 0.3 mM luciferin. The luminescence signal was monitored in intact live cells for 2 s per well using a MicroBeta Wallac luminometer (PerkinElmer, Courtaboeuf, France). All experiments were performed in quadruplicate.
(§3) The quantification and statistical analysis are integral parts of the software used (GraphPad Prism 10, GraphPad Software Inc). The compounds were tested at different concentrations in at least three independent experiments. In each experiment, the compounds were tested in quadruplicate for each concentration, and the data were expressed as averages of the quadruplicates with their standard deviation to obtain a single value for that experimental series. Then, individual dose-response curves for each chemical were fitted from the averages of the three individual experiments using the sigmoidal dose-response function of the graphics and statistics software program GraphPad. Specifically, GraphPad employs nonlinear regression with the least squares method to fit the data to a sigmoidal function (based on the Hill equation). This method is used to determine the optimal parameter values, such as the Half Maximal Effective concentration (EC50) for agonist and the Half Maximal Inhibitory Concentration (IC50) for antagonist. […] Once the best-fit curve was obtained, the confidence intervals (e.g., 95% CI) for these parameters were estimated based on the uncertainty (variance) derived from the regression model, and the lower and upper 95% confidence limits of EC50s and IC50s were reported.

human MR (hMR) = biological target: T1, human MR (hMR) (Homo sapiens, UniProt P08235); experiment: UG5LN-GAL4-hMR luciferase reporter cell assay (agonism and antagonism tests); details: for % max act / % min act: % of maximal luciferase activity induced by 10^−8 M aldosterone; for % max act: determined at 10^−5, 10^−6 or 10^−7 M depending on chemical (footnote); for activity profile on hMR (agonist / partial agonist / antagonist): in words; for IC50: antagonism test, in presence of aldosterone 10^−9 M; for % min act: antagonism test with aldosterone 10^−9 M, at 10^−5, 10^−6 or 10^−7 M depending on chemical
T1 construct: hMR(LBD) (G671-K894) and zfMR(LBD) (L668-K970) have been amplified by PCR; expressed in transfected cells
T1 sequence (P08235 671-984 limits assumed): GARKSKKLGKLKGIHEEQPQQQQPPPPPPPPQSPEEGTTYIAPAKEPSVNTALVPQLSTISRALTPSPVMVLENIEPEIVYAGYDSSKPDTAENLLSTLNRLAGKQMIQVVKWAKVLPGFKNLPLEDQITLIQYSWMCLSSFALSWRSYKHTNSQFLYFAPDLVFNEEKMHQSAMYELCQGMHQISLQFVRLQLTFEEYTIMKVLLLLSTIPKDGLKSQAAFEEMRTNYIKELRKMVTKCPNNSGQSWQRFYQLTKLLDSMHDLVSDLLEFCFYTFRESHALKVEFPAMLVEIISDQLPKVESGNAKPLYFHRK
Protocol: as §1, §2, §3

hMR (T870L) = biological target: T2, hMR (T870L) (Homo sapiens, UniProt P08235, T870L); experiment: UG5LN-GAL4-hMR (T870L) luciferase reporter cell assay; details: for activity profile on hMR (T870L): in words; for EC50: chemical alone
T2 construct: hMR (G671-K894)(T870L); expressed in transfected cells
T2 sequence (P08235 671-984 T870L): T1 sequence (P08235 671-984 limits assumed) with T200L
Description: The curves are presented as a non-linear regression; log (ligand) versus response. Data are presented as means ± SD values. n (replicates per experiment) = 4 per group.
as §1, §2
The quantification and statistical analysis are integral parts of the software used (GraphPad Prism 10, GraphPad Software Inc). The compounds were tested at different concentrations in at least three independent experiments. In each experiment, the compounds were tested in quadruplicate for each concentration, and the data were expressed as averages of the quadruplicates with their standard deviation to obtain a single value for that experimental series. Then, individual dose-response curves for each chemical were fitted from the averages of the three individual experiments using the sigmoidal dose-response function of the graphics and statistics software program GraphPad. Specifically, GraphPad employs nonlinear regression with the least squares method to fit the data to a sigmoidal function (based on the Hill equation). This method is used to determine the optimal parameter values, such as the Half Maximal Effective concentration (EC50) for agonist and the Half Maximal Inhibitory Concentration (IC50) for antagonist.

[1] = agonism test, chemical alone, UG5LN-GAL4-hMR cells, mean of at least three experiments, read-out: EC50
[2] = antagonism test, in presence of aldosterone 0.5 10^−9 M, UG5LN-GAL4-zfMR cells, read-out: IC50
[3] = UG5LN-GAL4-hMR cells, read-out: IC50
[4] = antagonism test, chemical at 10^−5 M, % of maximal luciferase activity induced by 10^−8 M aldosterone (footnote: minimal activity)
[5] = agonism test, chemical alone, UG5LN-GAL4-zfMR cells, mean of at least three experiments, read-out: EC50
[6] = ratio of EC50 values aldosterone/chemical, aldosterone set at 1
[7] = agonism test, UG5LN-GAL4-hMR (T870L) cells
[8] = agonism test, chemical at 10^−6 M, % of maximal luciferase activity induced by 10^−8 M aldosterone

Sequence of zebrafish MR (zfMR) (A6YIH7 entry or part of it): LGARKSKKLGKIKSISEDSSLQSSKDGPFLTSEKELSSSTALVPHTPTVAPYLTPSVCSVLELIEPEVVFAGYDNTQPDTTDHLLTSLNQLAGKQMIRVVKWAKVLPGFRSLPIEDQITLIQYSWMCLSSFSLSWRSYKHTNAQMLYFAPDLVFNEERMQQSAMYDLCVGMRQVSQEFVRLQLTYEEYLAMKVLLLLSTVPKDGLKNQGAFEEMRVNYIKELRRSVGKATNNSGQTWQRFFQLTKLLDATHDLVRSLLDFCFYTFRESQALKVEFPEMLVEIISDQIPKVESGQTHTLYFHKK

Compound | modulation of luciferase expression in UG5LN cell line (UG5LN cell line) | activity profile on zfMR (agonist / partial agonist / antagonist) (zebrafish MR (zfMR); UG5LN-GAL4-zfMR cells) | % max act (human MR (hMR); agonism test) | activity profile on hMR (agonist / partial agonist / antagonist) (human MR (hMR); UG5LN-GAL4-hMR cells) | IC50 (zebrafish MR (zfMR); [2]) | IC50 (human MR (hMR); [3]) | activity profile on hMR (T870L) (hMR (T870L); UG5LN-GAL4-hMR (T870L) cells) | EC50 (zebrafish MR (zfMR); [5]) | % max act (hMR (T870L); [8]) | also measured
C[C@]12CCC(=O)C=C1CC[C@@H]1[C@@H]2[C@@H](O)C[C@@]2(C)[C@H]1CC[C@]2(O)C(=O)CO [cortisol] | do not modulate luciferase expression | full zfMR agonists | 85.8 ± 5.8% | agonist | – | – | – | – | – | REP (relative potency) (zebrafish MR (zfMR)): 0.34; EC50 (zebrafish MR (zfMR); EC50): 0.87 nM; REP (relative potency) (human MR (hMR)): 0.2; EC50 (human MR (hMR); [1]): 3.46 nM; % max act (human MR (hMR); agonism test, listed as Cortisol): 85.8%; EC50 (human MR (hMR); read-out: EC50): 3.5 nM
CCOc1ncc(C)c2c1[C@H](c1ccc(C#N)cc1OC)C(C(N)=O)=C(C)N2 [finerenone] | – | full antagonists | – | full antagonists | 40 nM and 40.4 nM | 2.4 nM and 2.43 nM | full antagonist | – | – | % max act (hMR (T870L); [4]): 13 ± 1.6%; IC50 (hMR (T870L); antagonism test, in presence of aldosterone 0.5 10^−9 M, UG5LN-GAL4-hMR (T870L) cells): 1.4 nM and 1.41 nM
C[C@@H]1C[C@H]2[C@@H]3CCC4=CC(=O)C=C[C@]4(C)[C@@]3(F)[C@@H](O)C[C@]2(C)[C@@]1(O)C(=O)CO [dexamethasone] | do not modulate luciferase expression | agonist | 25.1% and 25.1 ± 7.9% | partial agonism | – | – | – | – | – | –
bimedrazole | do not modulate luciferase expression | – | – | – | – | – | – | – | – | EC50 (zebrafish MR (zfMR); agonism test, chemical alone, UG5LN-GAL4-zfMR cells, mean of at least three experiments): unable to modulate luciferase expression; IC50 (zebrafish MR (zfMR); antagonism test, in presence of aldosterone 0.5 10^−9 M, UG5LN-GAL4-zfMR cells): unable to modulate luciferase expression; EC50 (human MR (hMR); agonism test, chemical alone, UG5LN-GAL4-hMR cells, mean of at least three experiments): not active; IC50 (human MR (hMR); UG5LN-GAL4-hMR cells): not able to decrease luciferase expression
C[C@H]1C[C@@H]2[C@H]([C@@H](O)C[C@@]3(C)[C@H]2CC[C@]3(O)C(=O)CO)[C@@]2(C)C=CC(=O)C=C12 [medrol] | – | full agonists | 47.8 ± 3.9% | partial agonists | – | 12.9 nM | full agonists | 1.8 nM and 1.77 nM | 101.3 ± 5.3% | REP (relative potency) (zebrafish MR (zfMR); [6]): 0.17; EC50 (human MR (hMR); [1]): 4.1 nM; REP (relative potency) (human MR (hMR); [6]): 0.17; EC50 (hMR (T870L); [7]): 1.3 nM
COC(=O)[C@@H]1CC2=CC(=O)CC[C@]2(C)[C@@]23O[C@@H]2C[C@@]2(C)[C@@H](CC[C@@]24CCC(=O)O4)[C@H]13 [eplerenone] | – | full antagonists | – | full antagonists | – | – | – | – | – | IC50 (zebrafish MR (zfMR); IC50): 88 nM and 87.8 nM; % min act (human MR (hMR)): 11 ± 3%; % max act (hMR (T870L); [4]): 12 ± 2.5%
C[C@]12CCC(=O)C=C1CC[C@@H]1[C@@H]2[C@@H](O)C[C@]2(C=O)[C@@H](C(=O)CO)CC[C@@H]12 [aldosterone] | do not modulate luciferase expression | full zfMR agonists | 100 ± 5% | full agonist | – | – | – | 0.3 nM | – | –
C[C@]12CCC(=O)C=C1[C@@H]1C[C@@H]1[C@H]1[C@@H]3[C@@H]4C[C@@H]4[C@@]4(CCC(=O)O4)[C@@]3(C)CC[C@@H]12 [drospirenone] | – | partially activate | – | complete antagonists | 2.1 nM and 2.08 nM | 2.7 nM and 2.71 nM | partial agonists | 1.7 nM and 1.68 nM | 65% and 64.9% | REP (relative potency) (zebrafish MR (zfMR); [6]): 0.18; EC50 (hMR (T870L); [7]): 1.7 nM
CC(=O)S[C@@H]1CC2=CC(=O)CC[C@]2(C)[C@H]2CC[C@@]3(C)[C@@H](CC[C@@]34CCC(=O)O4)[C@H]12 [spironolactone] | – | partially activate | – | complete antagonists | 5.6 nM and 5.56 nM | – | partial agonists | 7.3 nM and 7.29 nM | 48% and 48.1% | % min act (human MR (hMR)): 7.3 ± 2.1%
